According to the kinase profiling compilation of Christmann-Franck et al. (2016):

What was measured:
Experiment in all cases: radiometric filter-binding kinase assay, Kinase HotSpot
Details in all cases: compound 0.5 µM; ATP 10 µM
LTK (human) = LTK (human) (UniProt P29376)
DYRK1B (human) = DYRK1B (human) (UniProt Q9Y463)
PRKCH (human) = PRKCH (human) (UniProt P24723)
STK33 (human) = STK33 (human) (UniProt Q9BYT3)
CDK5 CDK5R1 p25 (human) = CDK5 CDK5R1 p25 (human) (UniProt Q00535+Q15078)
CDK9 CCNK (human) = CDK9 CCNK (human) (UniProt O75909+P50750)
CDK2 CCNA2 (human) = CDK2 CCNA2 (human) (UniProt P24941+P20248)
Chain of CDK2 CCNA2 (human) (P20248 whole entry, looked up, other chains not shown): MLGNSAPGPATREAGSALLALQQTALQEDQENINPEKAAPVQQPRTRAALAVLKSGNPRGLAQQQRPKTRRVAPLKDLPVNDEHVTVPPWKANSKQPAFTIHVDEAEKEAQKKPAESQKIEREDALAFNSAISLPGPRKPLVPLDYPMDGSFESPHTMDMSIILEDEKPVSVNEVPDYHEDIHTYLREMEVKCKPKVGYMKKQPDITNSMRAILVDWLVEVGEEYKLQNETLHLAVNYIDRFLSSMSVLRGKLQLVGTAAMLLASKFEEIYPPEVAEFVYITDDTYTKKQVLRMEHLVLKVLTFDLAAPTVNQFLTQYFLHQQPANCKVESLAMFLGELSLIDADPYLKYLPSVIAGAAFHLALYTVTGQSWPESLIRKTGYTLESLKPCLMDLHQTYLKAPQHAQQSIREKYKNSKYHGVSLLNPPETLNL

CDK5 CDK5R1 p35 (human) = CDK5 CDK5R1 p35 (human) (UniProt Q00535+Q15078)
CDK4 CCND1 (human) = CDK4 CCND1 (human) (UniProt P24385+P11802)
CDK6 CCND3 (human) = CDK6 CCND3 (human) (UniProt P30281+Q00534)
Chain of CDK6 CCND3 (human) (P30281 whole entry, looked up): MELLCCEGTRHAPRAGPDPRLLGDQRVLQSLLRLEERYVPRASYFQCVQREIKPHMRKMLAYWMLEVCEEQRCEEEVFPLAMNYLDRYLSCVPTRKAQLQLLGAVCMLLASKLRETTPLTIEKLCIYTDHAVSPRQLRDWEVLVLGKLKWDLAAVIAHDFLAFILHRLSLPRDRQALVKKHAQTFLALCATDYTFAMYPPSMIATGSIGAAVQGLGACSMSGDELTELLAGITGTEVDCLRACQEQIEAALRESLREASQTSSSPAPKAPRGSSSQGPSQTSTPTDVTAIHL
Chain of CDK6 CCND3 (human) (Q00534 whole entry, looked up): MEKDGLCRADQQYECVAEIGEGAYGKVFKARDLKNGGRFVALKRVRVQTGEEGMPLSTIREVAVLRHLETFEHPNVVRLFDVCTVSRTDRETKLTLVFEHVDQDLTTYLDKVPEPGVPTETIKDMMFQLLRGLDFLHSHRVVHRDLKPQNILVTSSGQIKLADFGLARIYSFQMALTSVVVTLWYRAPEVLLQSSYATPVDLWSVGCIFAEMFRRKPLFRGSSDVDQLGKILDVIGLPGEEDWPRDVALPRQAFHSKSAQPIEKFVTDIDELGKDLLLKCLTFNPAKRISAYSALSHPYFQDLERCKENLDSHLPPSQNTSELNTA

CDK9 CCNT1 (human) = CDK9 CCNT1 (human) (UniProt P50750+O60563)
CDK7 CCNH MNAT1 (human) = CDK7 CCNH MNAT1 (human) (UniProt P50613+P51948+P51946)
CDK4 CCND3 (human) = CDK4 CCND3 (human) (UniProt P30281+P11802)
CDK1 CCNA2 (human) = CDK1 CCNA2 (human) (UniProt P06493+P20248)
CDK6 CCND1 (human) = CDK6 CCND1 (human) (UniProt Q00534+P24385)
Chain of CDK6 CCND1 (human) (P24385 whole entry, looked up): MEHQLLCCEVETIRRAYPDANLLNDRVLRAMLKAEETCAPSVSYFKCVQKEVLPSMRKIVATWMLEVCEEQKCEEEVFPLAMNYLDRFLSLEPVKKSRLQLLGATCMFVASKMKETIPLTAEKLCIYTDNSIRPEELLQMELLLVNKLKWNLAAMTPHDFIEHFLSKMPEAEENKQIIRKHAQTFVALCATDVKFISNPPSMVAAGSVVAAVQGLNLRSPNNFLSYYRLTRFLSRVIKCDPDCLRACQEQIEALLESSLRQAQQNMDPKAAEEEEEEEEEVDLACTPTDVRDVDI
Chain of CDK6 CCND1 (human) (Q00534 whole entry, looked up): as the sequence (Q00534 whole entry, looked up) above

CDK1 CCNB1 (human) = CDK1 CCNB1 (human) (UniProt P06493+P14635)
CDK2 CCNE1 (human) = CDK2 CCNE1 (human) (UniProt P24941+P24864)
CDK3 CCNE1 (human) = CDK3 CCNE1 (human) (UniProt Q00526+P24864)
MAP3K7 TAB1 (human) = MAP3K7 TAB1 (human) (UniProt O43318+Q15750)
TLK2 (human) = TLK2 (human) (UniProt Q86UE8)
EPHB2 (human) = EPHB2 (human) (UniProt P29323)
FRK (human) = FRK (human) (UniProt P42685)

Chain of STK33 (human) (Q9BYT3 whole entry, looked up): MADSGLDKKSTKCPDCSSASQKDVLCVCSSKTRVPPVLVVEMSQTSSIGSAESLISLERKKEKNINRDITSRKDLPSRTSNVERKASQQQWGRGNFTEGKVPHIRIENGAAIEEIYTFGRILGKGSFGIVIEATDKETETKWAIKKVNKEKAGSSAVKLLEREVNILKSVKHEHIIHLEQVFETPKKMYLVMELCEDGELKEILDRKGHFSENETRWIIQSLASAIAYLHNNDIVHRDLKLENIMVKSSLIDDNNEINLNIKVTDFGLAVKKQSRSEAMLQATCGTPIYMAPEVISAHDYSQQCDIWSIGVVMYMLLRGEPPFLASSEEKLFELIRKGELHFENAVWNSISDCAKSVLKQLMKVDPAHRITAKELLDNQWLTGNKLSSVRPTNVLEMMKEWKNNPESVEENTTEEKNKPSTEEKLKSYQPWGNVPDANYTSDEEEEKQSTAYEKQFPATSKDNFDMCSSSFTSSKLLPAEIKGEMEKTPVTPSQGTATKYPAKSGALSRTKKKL
Chain of DYRK1B (human) (Q9Y463 whole entry, looked up): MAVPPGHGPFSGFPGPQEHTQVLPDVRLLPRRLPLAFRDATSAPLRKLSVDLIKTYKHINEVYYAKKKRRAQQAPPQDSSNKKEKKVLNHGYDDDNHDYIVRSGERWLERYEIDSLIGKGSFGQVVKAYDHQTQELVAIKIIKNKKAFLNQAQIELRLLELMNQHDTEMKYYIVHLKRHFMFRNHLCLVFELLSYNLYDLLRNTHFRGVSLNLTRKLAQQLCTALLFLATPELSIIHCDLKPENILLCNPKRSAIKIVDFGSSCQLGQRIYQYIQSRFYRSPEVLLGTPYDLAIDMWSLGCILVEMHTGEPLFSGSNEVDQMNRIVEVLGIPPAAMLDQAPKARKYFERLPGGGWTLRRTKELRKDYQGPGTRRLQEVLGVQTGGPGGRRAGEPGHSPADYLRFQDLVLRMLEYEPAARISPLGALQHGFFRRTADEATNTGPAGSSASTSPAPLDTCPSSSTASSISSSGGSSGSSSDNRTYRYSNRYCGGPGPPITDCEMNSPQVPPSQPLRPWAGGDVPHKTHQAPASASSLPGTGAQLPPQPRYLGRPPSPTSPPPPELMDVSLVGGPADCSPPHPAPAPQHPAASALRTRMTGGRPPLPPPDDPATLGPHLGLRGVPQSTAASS
Chain of PRKCH (human) (P24723 whole entry, looked up): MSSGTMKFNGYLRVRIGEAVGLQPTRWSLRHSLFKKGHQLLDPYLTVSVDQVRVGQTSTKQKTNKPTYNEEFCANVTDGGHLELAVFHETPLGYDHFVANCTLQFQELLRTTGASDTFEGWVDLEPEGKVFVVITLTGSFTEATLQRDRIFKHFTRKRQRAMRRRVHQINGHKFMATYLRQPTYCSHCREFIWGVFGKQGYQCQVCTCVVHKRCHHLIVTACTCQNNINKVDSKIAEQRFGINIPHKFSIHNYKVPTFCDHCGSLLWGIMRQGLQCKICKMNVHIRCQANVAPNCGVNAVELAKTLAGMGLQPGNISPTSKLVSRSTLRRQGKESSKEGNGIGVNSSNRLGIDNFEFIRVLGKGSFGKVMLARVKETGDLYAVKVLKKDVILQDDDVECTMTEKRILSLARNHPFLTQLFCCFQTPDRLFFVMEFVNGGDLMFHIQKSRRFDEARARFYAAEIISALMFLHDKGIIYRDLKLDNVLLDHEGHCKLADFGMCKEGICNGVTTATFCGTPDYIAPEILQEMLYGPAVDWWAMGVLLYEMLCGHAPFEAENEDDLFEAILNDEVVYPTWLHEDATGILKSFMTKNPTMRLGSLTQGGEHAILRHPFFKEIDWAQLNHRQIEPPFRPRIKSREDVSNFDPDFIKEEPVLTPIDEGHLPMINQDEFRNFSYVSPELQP
Chain of LTK (human) (P29376 whole entry, looked up): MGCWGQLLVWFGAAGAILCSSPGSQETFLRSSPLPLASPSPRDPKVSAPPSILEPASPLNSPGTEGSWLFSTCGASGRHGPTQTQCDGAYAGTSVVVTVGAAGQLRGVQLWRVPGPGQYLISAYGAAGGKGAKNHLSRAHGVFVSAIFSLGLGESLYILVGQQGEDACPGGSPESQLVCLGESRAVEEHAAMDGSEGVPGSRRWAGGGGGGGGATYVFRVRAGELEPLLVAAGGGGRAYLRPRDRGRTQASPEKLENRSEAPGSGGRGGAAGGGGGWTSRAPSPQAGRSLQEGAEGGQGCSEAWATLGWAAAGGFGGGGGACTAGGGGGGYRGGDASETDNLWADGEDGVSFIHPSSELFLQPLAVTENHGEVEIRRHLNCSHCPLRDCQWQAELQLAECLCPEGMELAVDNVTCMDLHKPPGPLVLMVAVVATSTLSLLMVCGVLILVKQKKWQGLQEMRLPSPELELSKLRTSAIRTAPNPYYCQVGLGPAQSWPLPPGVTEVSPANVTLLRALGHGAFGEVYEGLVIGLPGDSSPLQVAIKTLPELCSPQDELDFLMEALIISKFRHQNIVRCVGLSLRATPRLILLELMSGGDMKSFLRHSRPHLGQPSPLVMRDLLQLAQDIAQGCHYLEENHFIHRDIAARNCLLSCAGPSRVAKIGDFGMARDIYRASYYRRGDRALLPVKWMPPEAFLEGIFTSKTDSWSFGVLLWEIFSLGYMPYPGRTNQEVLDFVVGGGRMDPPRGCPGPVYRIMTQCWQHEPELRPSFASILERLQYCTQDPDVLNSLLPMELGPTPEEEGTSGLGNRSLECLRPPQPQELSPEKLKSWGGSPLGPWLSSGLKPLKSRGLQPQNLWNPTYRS
Chain of CDK5 CDK5R1 p25 (human) (Q00535 whole entry, looked up): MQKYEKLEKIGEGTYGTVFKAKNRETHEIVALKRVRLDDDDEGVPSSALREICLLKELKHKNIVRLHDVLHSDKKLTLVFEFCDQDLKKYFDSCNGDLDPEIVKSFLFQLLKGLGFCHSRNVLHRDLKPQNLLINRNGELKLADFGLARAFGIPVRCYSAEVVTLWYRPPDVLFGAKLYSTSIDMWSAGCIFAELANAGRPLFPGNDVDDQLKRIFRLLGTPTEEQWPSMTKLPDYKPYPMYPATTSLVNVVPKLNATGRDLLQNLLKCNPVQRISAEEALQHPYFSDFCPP
Chain of CDK5 CDK5R1 p25 (human) (Q15078 whole entry, looked up): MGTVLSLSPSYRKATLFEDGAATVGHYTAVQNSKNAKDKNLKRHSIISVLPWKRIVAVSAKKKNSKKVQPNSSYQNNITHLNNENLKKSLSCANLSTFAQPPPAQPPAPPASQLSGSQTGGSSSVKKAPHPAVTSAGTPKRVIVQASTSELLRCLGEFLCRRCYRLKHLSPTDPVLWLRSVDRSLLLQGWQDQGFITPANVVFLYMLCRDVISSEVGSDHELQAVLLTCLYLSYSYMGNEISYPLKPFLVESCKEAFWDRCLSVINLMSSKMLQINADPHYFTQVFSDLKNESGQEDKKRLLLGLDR

**Q.** `CO[C@H]1[C@@H](OC)C[C@H](C)[C@@H](OC)C2=CC(=O)C=C(NC(=O)/C(C)=C\C=C/[C@H](OC)[C@@H](OC(N)=O)/C(C)=C\[C@@H]1C)C2=O` was tested. Which residual activity (LTK (human)) did it give?
**A.** 98.5%

**Q.** What about the residual activity (DYRK1B (human)) of the same compound?
**A.** 104%

**Q.** What about the residual activity (PRKCH (human)) of the same compound?
**A.** 95.3%

**Q.** What about the residual activity (STK33 (human)) of the same compound?
**A.** 97%

**Q.** How did the residual activity (PRKCH (human)) turn out when `CC(C)n1cnc2c(NCc3ccccc3)nc(NCCCO)nc21` was run?
**A.** 77%

**Q.** With `COC[C@H]1OC(=O)c2coc3c2[C@@]1(C)C1=C(C3=O)[C@@H]2CCC(=O)[C@@]2(C)C[C@H]1OC(C)=O` as the compound, how does the residual activity (CDK5 CDK5R1 p25 (human)) read?
**A.** 87.6%

**Q.** And the residual activity (CDK9 CCNK (human))?
**A.** 107%

**Q.** And the residual activity (CDK2 CCNA2 (human))?
**A.** 93.5%

**Q.** What about the residual activity (CDK5 CDK5R1 p35 (human)) of the same compound?
**A.** 88.7%

**Q.** And the residual activity (CDK4 CCND1 (human))?
**A.** 94.8%

**Q.** And the residual activity (CDK6 CCND3 (human))?
**A.** 85.8%

**Q.** What about the residual activity (CDK9 CCNT1 (human)) of the same compound?
**A.** 93.7%

**Q.** And the residual activity (CDK7 CCNH MNAT1 (human))?
**A.** 93.3%

**Q.** And the residual activity (CDK4 CCND3 (human))?
**A.** 98.8%

**Q.** What about the residual activity (CDK1 CCNA2 (human)) of the same compound?
**A.** 97%

**Q.** And the residual activity (CDK6 CCND1 (human))?
**A.** 90.1%

**Q.** What about the residual activity (CDK1 CCNB1 (human)) of the same compound?
**A.** 101%

**Q.** And the residual activity (DYRK1B (human))?
**A.** 100%

**Q.** What about the residual activity (PRKCH (human)) of the same compound?
**A.** 100%

**Q.** And the residual activity (CDK2 CCNE1 (human))?
**A.** 105%

**Q.** And the residual activity (STK33 (human))?
**A.** 88.2%

**Q.** What about the residual activity (CDK3 CCNE1 (human)) of the same compound?
**A.** 95.2%

**Q.** What about the residual activity (MAP3K7 TAB1 (human)) of the same compound?
**A.** 97.2%

**Q.** With `Cc1cc(C)c(/C=C2\C(=O)Nc3ccccc32)[nH]1` as the compound, how does the residual activity (TLK2 (human)) read?
**A.** 98.5%

**Q.** And the residual activity (PRKCH (human))?
**A.** 94.7%

**Q.** With `O=C(Nc1nc2ccccc2n1CCN1CCOCC1)c1cccc([N+](=O)[O-])c1` as the compound, how does the residual activity (PRKCH (human)) read?
**A.** 94.9%

**Q.** What does the source list for `O=[N+]([O-])/C=C/c1ccc2c(c1)OCO2`?
**A.** residual activity (LTK (human)): 96.4%; residual activity (DYRK1B (human)): 112%; residual activity (PRKCH (human)): 103%; residual activity (STK33 (human)): 94.2%

**Q.** With `Cc1nc(Nc2ncc(C(=O)Nc3c(C)cccc3Cl)s2)cc(N2CCN(CCO)CC2)n1` as the compound, how does the residual activity (CDK5 CDK5R1 p25 (human)) read?
**A.** 102%

**Q.** What about the residual activity (CDK9 CCNK (human)) of the same compound?
**A.** 104%

**Q.** And the residual activity (CDK2 CCNA2 (human))?
**A.** 92.4%

**Q.** And the residual activity (CDK5 CDK5R1 p35 (human))?
**A.** 101%

**Q.** What about the residual activity (CDK4 CCND1 (human)) of the same compound?
**A.** 94.4%

**Q.** And the residual activity (CDK6 CCND3 (human))?
**A.** 103%

**Q.** What about the residual activity (CDK9 CCNT1 (human)) of the same compound?
**A.** 84.1%

**Q.** And the residual activity (CDK7 CCNH MNAT1 (human))?
**A.** 112%

**Q.** And the residual activity (CDK4 CCND3 (human))?
**A.** 99.1%

**Q.** And the residual activity (CDK1 CCNA2 (human))?
**A.** 96.3%

**Q.** What about the residual activity (EPHB2 (human)) of the same compound?
**A.** -0.191%

**Q.** What about the residual activity (CDK6 CCND1 (human)) of the same compound?
**A.** 95.5%

**Q.** What about the residual activity (CDK1 CCNB1 (human)) of the same compound?
**A.** 93.9%

**Q.** What about the residual activity (FRK (human)) of the same compound?
**A.** -0.878%

**Q.** And the residual activity (PRKCH (human))?
**A.** 106%

**Q.** What about the residual activity (CDK2 CCNE1 (human)) of the same compound?
**A.** 95.9%

**Q.** What about the residual activity (CDK3 CCNE1 (human)) of the same compound?
**A.** 91.7%

**Q.** What about the residual activity (MAP3K7 TAB1 (human)) of the same compound?
**A.** 87.3%
